The subject of one assay is Streptococcus pneumoniae. The experiment in a line: Antimicrobial activity against Streptococcus pneumoniae MTCC 1936 for 24 hrs by microdilution method. Format: functional. Conditions: MTCC 1936, 24 h. (In general: Broth dilution looks for growth in wells or tubes with falling amounts of substance.)
In the next assay the test system is Vibrio cholerae. The experiment in a line: Antimicrobial activity against Vibrio cholerae MTCC 3906 for 24 hrs by microdilution method. Format: functional. Conditions: MTCC 3906, 24 h.
The next assay concerns Bacillus subtilis. The experiment in a line: Antimicrobial activity against Bacillus subtilis MTCC 441 for 24 hrs by microdilution method. The format is functional. Conditions: MTCC 441, 24 h.
The next assay relates to Aspergillus fumigatus. The experiment in a line: Antifungal activity against Aspergillus fumigatus MTCC 3008 for 48 hrs by microdilution method. The format is functional. Conditions: MTCC 3008, 48 h.
For a further assay, the system named is Candida albicans. The experiment in a line: Antifungal activity against Candida albicans MTCC 227 for 48 hrs by microdilution method. The format is functional. Conditions: MTCC 227, 48 h.
A further assay deals with Salmonella typhi. The experiment in a line: Antimicrobial activity against Salmonella typhi MTCC 98 for 24 hrs by microdilution method. The note with it: Salmonella enterica, MTCC 98, 24 h. Format: functional, Salmonella enterica subsp. enterica serovar Typhi.
The subject of another assay is Escherichia coli. The experiment in a line: Antimicrobial activity against Escherichia coli MTCC 443 for 24 hrs by microdilution method. The note with it: MTCC 443, 24 h. Format: functional.
In another assay the test system is Clostridium tetani. Description: Antimicrobial activity against Clostridium tetani MTCC 449 for 24 hrs by microdilution method. Format: functional. Conditions: MTCC 449, 24 h.

In brackets after ≈: the same amount, converted by molar mass.

This note sets out measurements from ChEMBL document CHEMBL1833797, “Microwave assisted synthesis and antimicrobial evaluation of new fused pyran derivatives bearing 2-morpholinoquinoline nucleus” (2011).

`Cc1ccc2nc(N3CCOCC3)c(C3C(C#N)=C(N)Oc4c3ccc3ccccc43)cc2c1` (centres undefined): the MIC against Streptococcus pneumoniae is 500 µg/mL (≈ 1110 µM); in the assay on Vibrio cholerae, 12.5 µg/mL (≈ 27.9 µM); with Bacillus subtilis it was 500 µg/mL (≈ 1110 µM); against Aspergillus fumigatus, 500 µg/mL (≈ 1110 µM); with Candida albicans, more than 1000 µg/mL; in the assay with Salmonella typhi, 250 µg/mL (≈ 557 µM). For the same compound, the figures for the MIC in the assay on Escherichia coli and against Clostridium tetani were 200 µg/mL (≈ 446 µM) and 500 µg/mL (≈ 1110 µM), respectively.
For `Cc1ccc2nc(N3CCOCC3)c(C3C(C#N)=C(N)OC4=C3C(=O)CC(C)(C)C4)cc2c1` (centres undefined), the MIC was found to be 25 µg/mL (≈ 56.2 µM) with Streptococcus pneumoniae; 250 µg/mL (≈ 562 µM) in the assay with Vibrio cholerae; 200 µg/mL (≈ 450 µM) against Bacillus subtilis; 1000 µg/mL (≈ 2250 µM) against Aspergillus fumigatus; 250 µg/mL (≈ 562 µM) with Candida albicans; 250 µg/mL (≈ 562 µM) in the assay with Salmonella typhi. Moreover, the MIC in the assay with Escherichia coli stood at 200 µg/mL (≈ 450 µM); in the assay on Clostridium tetani it was 500 µg/mL (≈ 1120 µM).
As to `Cc1ccc2nc(N3CCOCC3)c(C3C(C#N)=C(N)Oc4cc(C)oc(=O)c43)cc2c1` (centres undefined), the MIC in the assay with Streptococcus pneumoniae was determined as 500 µg/mL (≈ 1160 µM); with Vibrio cholerae it was 200 µg/mL (≈ 465 µM); against Bacillus subtilis, 500 µg/mL (≈ 1160 µM); against Aspergillus fumigatus, 200 µg/mL (≈ 465 µM); in the assay on Candida albicans, 1000 µg/mL (≈ 2320 µM); in the assay with Salmonella typhi, 200 µg/mL (≈ 465 µM). In addition, the MIC in the assay on Escherichia coli was 100 µg/mL (≈ 232 µM); in the assay with Clostridium tetani, 200 µg/mL (≈ 465 µM).

Usually MIC stands for the lowest concentration that inhibits growth of the organism.
